In ChEMBL document CHEMBL3638868, “Nitrogenous-ring acylguanidine derivative” (2014):

Target: 5-hydroxytryptamine receptor 5A (Homo sapiens, UniProt P47898)
Assay: Binding Inhibition Assay: A solution of the compound to be tested and 100 μM 5-CT (5-carboxamidetriptamine) in DMSO was added to a 96-well plate at 2 μl/well, suspended in an incubation buffer, and a membrane from HEK293 cells for forced expressions of a human 5-HT5A receptor prepared at 200 ug/ml was added at 100 μl/well. After incubation at room temperature for 15 minutes, a [3H]5-CT solution (2 nM [3H]5-CT, incubation buffer) was added thereto at 100 μl/well.Separately, 100 μl of the solution was distributed into a liquid scintillation vial, and 2 ml of Aquasol II (registered trademark) was added thereto, followed by stirring. Then, radioactivity was measured by a liquid scintillation counter. It was incubated at 37C. for 60 minutes. The reaction mixture was sucked into 96-well GF/C filter plate that had been pre-treated with 0.2% polyethyleneimine, and washed six times with an ice-cooled, 50 mM Tris (pH 7.5) buffer. The GF/C filter plate was dried.
Format: cell membranes

Sequence of 5-hydroxytryptamine receptor 5A (P47898 whole entry): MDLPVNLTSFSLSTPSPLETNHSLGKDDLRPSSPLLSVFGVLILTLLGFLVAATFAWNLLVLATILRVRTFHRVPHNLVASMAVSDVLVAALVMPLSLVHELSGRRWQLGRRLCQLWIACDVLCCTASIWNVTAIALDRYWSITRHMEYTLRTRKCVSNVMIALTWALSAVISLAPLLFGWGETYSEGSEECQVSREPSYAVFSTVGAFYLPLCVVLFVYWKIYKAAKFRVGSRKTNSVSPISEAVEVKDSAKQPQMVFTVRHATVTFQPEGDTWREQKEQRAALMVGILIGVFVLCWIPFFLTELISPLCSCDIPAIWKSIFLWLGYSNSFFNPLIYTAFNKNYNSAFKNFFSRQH

NC(N)=NC(=O)c1ccc2c(C(F)F)cnc(-c3c(F)cccc3F)c2c1
Ki: 4.6 nM
